Patent US11759454B2, “Diazole lactams” (CHEMOCENTRYX, INC., priority 2012, dated 2023)

Tests used:
CCR1 = target: T1, CCR1 (Homo sapiens, UniProt P32246); experiment: Chemotaxis assay (inhibition of CCR1 mediated migration); format: cell-based; settings: chemotaxis of THP-1 or monocyte cells toward CCR1 chemokine ligand (MIP-1α, CCL15/leukotactin); read-out: Avg Mig IC50
T1 construct: host or cells: THP-1 cells (or freshly isolated monocytes)
T1 sequence (P32246 1-355): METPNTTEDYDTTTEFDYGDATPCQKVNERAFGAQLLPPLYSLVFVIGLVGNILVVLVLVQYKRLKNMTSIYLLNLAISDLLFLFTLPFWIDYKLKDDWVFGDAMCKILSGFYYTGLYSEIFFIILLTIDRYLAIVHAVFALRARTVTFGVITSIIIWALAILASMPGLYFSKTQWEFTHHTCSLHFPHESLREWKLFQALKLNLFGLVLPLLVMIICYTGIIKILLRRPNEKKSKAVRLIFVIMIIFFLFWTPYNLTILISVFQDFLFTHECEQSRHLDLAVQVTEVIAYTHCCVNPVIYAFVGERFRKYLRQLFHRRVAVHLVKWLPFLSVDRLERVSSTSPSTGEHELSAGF
Procedure: THP-1 cells were obtained from ATCC (TIB-202) and cultured as a suspension in RPMI-1640 medium supplemented with 2 mM L-glutamine, 1.5 g/L sodium bicarbonate, 4.5 g/L glucose, 10 mM HEPES, 1 mM sodium pyruvate, 0.05% 2-mercaptoethanol and 10% FBS. Cells were grown under 5% CO2/95% air, 100% humidity at 37° C. and subcultured twice weekly at 1:5 (cells were cultured at a density range of 2×10^5 to 2×10^6 cells/mL) and harvested at 1×10^6 cells/mL. THP-1 cells express CCR1 and can be used in CCR1 binding and functional assays.
Chemotaxis assays were performed using 5 μm pore polycarbonate, polyvinylpyrrolidone-coated filters in 96-well chemotaxis chambers (Neuroprobe; Gaithersburg, Md.) using chemotaxis buffer (Hank's balanced salt solution (HBSS) and 1% FBS). CCR1 chemokine ligands (i.e., MIP-1α, CCL15/Leukotactin; R&D Systems; Minneapolis, Minn.) are use to evaluate compound mediated inhibition of CCR1 mediated migration. Other chemokines (i.e., SDF-1α; R&D Systems; Minneapolis, Minn.) are used as specificity controls. The lower chamber was loaded with 29 μl of chemokine (i.e., 0.1 nM CCL15/Leukotactin) and varying amounts of compound; the top chamber contained 100,000 THP-1 or monocyte cells in 20 μl. The chambers were incubated 1-2 hours at 37° C., and the number of cells in the lower chamber quantified either by direct cell counts in five high powered fields per well or by the CyQuant assay (Molecular Probes), a fluorescent dye method that measures nucleic acid content and microscopic observation.
One of the primary functions of chemokines is their ability to mediate the migration of chemokine receptor-expressing cells, such as white blood cells. To confirm that a compound of interest inhibited not only CCR1 specific binding and signaling (at least as determined by calcium mobilization assays), but also CCR1 mediated migration, a chemotaxis assay was employed. THP-1 myelomonocytic leukemia cells, which resemble monocytes, as wells as freshly isolated monocytes, were used as targets for chemoattraction by CCR1 chemokine ligands (i.e., MIP-1α, CCL15/leukotactin). Cells were placed in the top compartment of a microwell migration chamber, while MIP-1α (or other potent CCR1 chemokine ligand) and increasing concentrations of a compound of interest was loaded in the lower chamber. […] To ascertain a compound of interest's affinity for CCR1 as well as to confirm its ability to inhibit CCR1 mediated cell migration, inhibitory activity was titered over a 1×10^−10 to 1×10^−4 M range of compound concentrations in this chemotaxis assay. In this assay, the amount of compound was varied; while cell number and chemokine agonist concentrations were held constant. After the chemotaxis chambers were incubated 1-2 hours at 37° C., the responding cells in the lower chamber were quantified by labeling with the CyQuant assay (Molecular Probes), a fluorescent dye method that measures nucleic acid content, and by measuring with a Spectrafluor Plus (Tecan). The computer program Prism from GraphPad, Inc. (San Diego, Calif.) was used to calculate IC50 values. IC50 values are those compound concentrations required to inhibit the number of cells responding to a CCR1 agonist by 50%.

[1] = test system: inflammatory cells recruited to the inflamed synovial fluid of the knee joints; experiment: Rabbit model of destructive joint inflammation (rabbit LPS study); format: in vivo; settings: female New Zealand rabbits, intra-articular LPS 10 ng, oral dosing in 1% methocel 2 h before and 4 h after LPS, lavage at 16 h
Procedure: a) Rabbit Model of Destructive Joint Inflammation
A rabbit LPS study was conducted essentially as described in Podolin, et al. J. Immunol. 169(11):6435-6444 (2002). Female New Zealand rabbits (approximately 2 kilograms) were treated intra-articularly in both knees with LPS (10 ng). The compound of interest, for example 1.016, (formulated in 1% methocel) or vehicle (1% methocel) was dosed orally at a 5 ml/kg dose volume at two times (2 hours before the intra-articular LP S injection and 4 hours after the intra-articular LP S injection). Sixteen hours after the LP S injection, knees were lavaged and cells counts were performed. Beneficial effects of treatment were determined by reduction in the number of inflammatory cells recruited to the inflamed synovial fluid of the knee joints.

CCR1 bearing neutrophils = experiment: Murine model of inflammation (thioglycolate induced peritoneal inflammation); format: in vivo; settings: 3% thioglycolate into the peritoneum
Procedure: Murine Model of Inflammation
A method of inducing peritoneal inflammation by the introduction of 3% thioglycolate into the peritoneum is well know in the art. Following the introduction of thioglycolate, a rapid influx of immune cells to the site, primarily CCR1 bearing neutrophils, results in local inflammation at 24 hours. A peritoneal exudate can be sampled, and the cell number and composition can be assessed to determine the anti-inflammatory properties of a compound of interest administered before, during or after the thioglycolate induction.

SMILES	IC50 (CCR1) [nM]	other results
Cc1nc(C(F)(F)F)cn1C1CCN(c2cnn(-c3ccc(F)cc3)c2N(C)C)C1=O (stereo not drawn) [Compound 1.001]	100 to 20000	
Cc1nc(C(F)(F)F)cn1C1CCN(c2cnn(-c3ccc(F)cc3)c2OC(C)C)C1=O (stereo not drawn) [Compound 1.002]	≤ 100	
Cc1nc(C(F)(F)F)cn1C1(C)CCN(c2cnn(-c3ccc(Cl)cc3)c2C(C)C)C1=O (stereo not drawn) [Compound 1.003]	100 to 20000	
CCc1nc(C(F)(F)F)cn1C1CCN(c2cnn(-c3ccc(Cl)cc3)c2C(C)C)C1=O (stereo not drawn) [Compound 1.004]	≤ 100	
Cc1nc(C(F)(F)F)cn1C1CC(C)N(c2cnn(-c3ccc(F)cc3)c2C(C)C)C1=O (stereo not drawn) [Compound 1.005]	100 to 20000	
Cc1c(Cl)c(C(F)(F)F)nn1C1CCN(c2cnn(-c3ccc(F)cc3)c2C2CC2)C1=O (stereo not drawn) [Compound 1.006]	≤ 100	
CCCc1c(N2CCC(n3nc(C(F)(F)F)c(Cl)c3C)C2=O)cnn1-c1ccc(F)cc1 (stereo not drawn) [Compound 1.007]	100 to 20000	
Cc1nc(C(F)(F)F)cn1C1CCN(c2cnn(-c3ccc(Cl)cc3)c2C(C)C)C1=O (stereo not drawn) [Compound 1.008]	≤ 100	
Cc1c(Cl)c(C(F)(F)F)nn1C1CC(C)N(c2cnn(-c3ccc(F)cc3)c2C(C)C)C1=O (stereo not drawn) [Compound 1.009]	≤ 100	
CCC(C)c1c(N2CCC(n3nc(C(F)(F)F)c(Cl)c3C)C2=O)cnn1-c1ccc(F)cc1 (stereo not drawn) [Compound 1.010]	≤ 100	
Cc1c(Cl)c(C(F)(F)F)nn1C1CCN(c2cnn(-c3ccc(Cl)cc3)c2C(C)C)C1=O (stereo not drawn) [Compound 1.011]	≤ 100	
C/C=C(\C)c1c(N2CCC(n3nc(C(F)(F)F)c(Cl)c3C)C2=O)cnn1-c1ccc(F)cc1 (stereo not drawn) [Compound 1.012]	100 to 20000	
CC(C)c1c(N2CCC(n3ccc(C(F)(F)F)n3)C2=O)cnn1-c1ccc(F)cc1 (stereo not drawn) [Compound 1.013]	100 to 20000	
CC(C)c1c(N2CCC(n3nc(-c4ncc[nH]4)c4c(N)ncnc43)C2=O)cnn1-c1ccc(F)cc1 (stereo not drawn) [Compound 1.014]	100 to 20000	
Cc1c(Cl)c(-c2ncc[nH]2)nn1C1CCN(c2cnn(-c3ccc(F)cc3)c2C(C)C)C1=O (stereo not drawn) [Compound 1.015]	100 to 20000	
CC(C)c1c(N2CCC(n3cnc(C(F)(F)F)c3)C2=O)cnn1-c1ccc(F)cc1 (stereo not drawn) [Compound 1.016]	100 to 20000	reduction in the number of inflammatory cells recruited to the inflamed synovial fluid of the knee joints [1]: significant reduction in recruited inflammatory cells
Cc1nn(C2CCN(c3cnn(-c4ccc(F)cc4)c3C(C)C)C2=O)c(C(C)(C)O)c1Cl (stereo not drawn) [Compound 1.017]	100 to 20000	
Cc1c(Cl)c(C(C)(C)O)nn1C1CCN(c2cnn(-c3ccc(F)cc3)c2C(C)C)C1=O (stereo not drawn) [Compound 1.018]	100 to 20000	
CCCc1c(N2CCC(n3nc(C(F)(F)F)c(Cl)c3C)C2=O)cnn1-c1cccc(F)c1 (stereo not drawn) [Compound 1.019]	100 to 20000	
Cc1c(Cl)c(C(F)(F)F)nn1C1CCN(c2cnn(-c3ccc(F)cc3)c2C(C)(C)C)C1=O (stereo not drawn) [Compound 1.020]	100 to 20000	
CC(C)c1c(N2CCC(n3nc(-c4ncc[nH]4)c4cccnc43)C2=O)cnn1-c1ccc(F)cc1 (stereo not drawn) [Compound 1.021]	100 to 20000	
Cc1cc(C(F)(F)F)nn1C1CCN(c2cnn(-c3ccc(F)cc3)c2C(C)C)C1=O (stereo not drawn) [Compound 1.022]	≤ 100	
Cc1c(Cl)c(C(F)(F)F)nn1C1CCN(c2cnn(-c3cccc(F)c3)c2I)C1=O (stereo not drawn) [Compound 1.023]	100 to 20000	

SMILES	IC50 (CCR1) [nM]	other results
Cc1c(Cl)c(C(F)(F)F)nn1C1CCN(c2cnn(-c3cccc(F)c3)c2C2CC2)C1=O (stereo not drawn) [Compound 1.024]	100 to 20000	
Cc1nc(C(F)(F)F)cn1C1CCN(c2cnn(-c3ccc(F)cc3)c2C(C)C)C1=O (stereo not drawn) [Compound 1.025]	≤ 100	
Cc1c(Cl)c(C(F)(F)F)nn1C1CCN(c2cnn(-c3ccc(F)cc3)c2-c2ccccc2)C1=O (stereo not drawn) [Compound 1.026]	100 to 20000	
Cc1c(Cl)c(C(F)(F)F)nn1C1CCN(c2cnn(-c3cccc(F)c3)c2-c2ccoc2)C1=O (stereo not drawn) [Compound 1.027]	100 to 20000	
Cc1c(Cl)c(C(F)(F)F)nn1C1CCN(c2cnn(-c3ccc(F)cc3)c2C(C)C)C1=O (stereo not drawn) [Compound 1.028]	≤ 100	
Cc1c(N2CCCCC(n3nc(C(F)(F)F)c(Cl)c3C)C2=O)cnn1-c1ccc(F)cc1 (stereo not drawn) [Compound 1.029]	100 to 20000	
Cc1c(N2CCCC(n3nc(C(F)(F)F)c(Cl)c3C)C2=O)cnn1-c1ccc(F)cc1 (stereo not drawn) [Compound 1.030]	100 to 20000	
Cc1nc(C(F)(F)F)cn1C1CCCN(c2cnn(-c3ccc(F)cc3)c2C)C1=O (stereo not drawn) [Compound 1.031]	100 to 20000	
CCc1c(N2CCC(n3nc(C(F)(F)F)c(Cl)c3C)C2=O)cnn1-c1ccc(F)cc1 (stereo not drawn) [Compound 1.032]	≤ 100	
Cc1nc(C(F)(F)F)cn1C1CCN(c2cnn(-c3ccc(F)cc3)c2C)C1=O (stereo not drawn) [Compound 1.033]	100 to 20000	
Cc1c(N2CCC(n3nc(C(F)(F)F)nc3C)C2=O)cnn1-c1ccc(F)cc1 (stereo not drawn) [Compound 1.034]	100 to 20000	
Cc1c(N2CCC(n3nc(C(F)(F)F)c(Cl)c3C)C2=O)cnn1-c1ccc(F)cc1 (stereo not drawn) [Compound 1.035]	100 to 20000	
Cc1nc(C(F)(F)F)cn1C1CCCN(c2cnn(-c3ccc(F)cc3)c2C)C1=O (stereo not drawn) [Compound 1.036]	100 to 20000	
Cc1c(Cl)c(C(F)(F)F)nn1C1CCCN(c2cnn(-c3ccc(F)cc3)c2)C1=O (stereo not drawn) [Compound 1.037]	100 to 20000	
Cc1cc(C(F)(F)F)nn1C1CCN(c2cnn(-c3ccc(F)cc3)c2)C1=O (stereo not drawn) [Compound 1.038]	100 to 20000	
Cc1nc(C(F)(F)F)cn1C1CCN(c2cnn(-c3ccc(F)cc3)c2)C1=O (stereo not drawn) [Compound 1.039]	100 to 20000	
Cc1c(Cl)c(C(F)(F)F)nn1C1CCN(c2cnn(-c3ccc(F)cc3)c2)C1=O (stereo not drawn) [Compound 1.040]	100 to 20000	
COc1cc(-n2ncc(N3CC[C@H](n4cc(C(F)(F)F)nc4C)C3=O)c2C(C)C)ccc1Cl [Compound 1.041]	100 to 20000	
Cc1nc(C(F)(F)F)cn1[C@H]1CCN(c2nnn(-c3ccc(Cl)cc3)c2C(C)C)C1=O [Compound 1.042]	≤ 100	neutrophil number in peritoneal exudate (CCR1 bearing neutrophils): dramatic decrease; total cell number in peritoneal exudate (CCR1 bearing neutrophils): dramatic decrease
Cc1nc(C(F)(F)F)cn1C1CCN(c2cnn(-c3ccc(Cl)cc3)c2C(F)(F)F)C1=O (stereo not drawn) [Compound 1.043]	100 to 20000	
Cc1nc(C(F)(F)F)cn1C1CCN(c2cnn(-c3ccc(Cl)cc3)c2C2CCC2)C1=O (stereo not drawn) [Compound 1.044]	≤ 100	
Cc1nc(C(F)(F)F)cn1[C@H]1CCN(c2cnn(-c3ccc(Cl)cc3)c2C(C)C)C1=O [Compound 1.045]	≤ 100	
